ChEMBL document CHEMBL1201862, “PubChem BioAssay data set” (2004)
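Cells were grown in 96-well plates and exposed to each compound for 48 hours at five concentrations; endpoints were interpolated linearly between bracketing concentrations, or set to the highest concentration if not reached. Here, GI50 denotes the concentration required for 50% inhibition of growth.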 Activity calls are given as the source filed them. No stated cut-off is given here; in the data, active = GI50 up to about 1.1 µM and inactive = higher.

What was measured:
Assay in all cases: NCI tumour cell line growth inhibition, 48 h
[1] = tested on: A498
[2] = tested on: CAKI-1
[3] = tested on: CCRF-CEM
[4] = tested on: COLO 205
[5] = tested on: HOP-92
[6] = tested on: IGROV-1
[7] = tested on: KM-20L2
[8] = tested on: KM12
[9] = tested on: M14
[10] = tested on: OVCAR-8
[11] = tested on: SF-295
[12] = tested on: SK-MEL-2
[13] = tested on: SK-MEL-5
[14] = tested on: SNB-19
[15] = tested on: SNB-75
[16] = tested on: SR
[17] = tested on: U-251
[18] = tested on: BT-549
[19] = tested on: Hs-578T
[20] = tested on: PC-3

SMILES | GI50 [1] | GI50 [2] | GI50 [3] | GI50 [4] | GI50 [5] | GI50 [6] | GI50 [7] | GI50 [8] | GI50 [9] | GI50 [10] | GI50 [11] | GI50 [12] | GI50 [13] | GI50 [14] | GI50 [15] | GI50 [16] | GI50 [17] | GI50 [18] | GI50 [19] | GI50 [20]
NC(CCc1nc(-c2ccc(Cl)cc2)cs1)C(=O)O (centres undefined) | > 100 µM (inactive) | > 100 µM (inactive) | > 100 µM (inactive) | > 100 µM (inactive) | > 73.5 µM (inactive) | > 100 µM (inactive) | > 100 µM (inactive) | > 100 µM (inactive) | > 100 µM (inactive) | > 100 µM (inactive) | > 100 µM (inactive) | > 100 µM (inactive) | > 100 µM (inactive) | > 100 µM (inactive) | > 100 µM (inactive) | > 100 µM (inactive) | > 100 µM (inactive) | – | – | –
O=[N+]([O-])c1ccc2c(Nc3ccccc3-c3ccccc3Nc3c4ccccc4nc4cc([N+](=O)[O-])ccc34)c3ccccc3nc2c1 | 9.35 µM (inactive) | 6.46 µM (inactive) | 3.88 µM (inactive) | 2.74 µM (inactive) | 3.44 µM (inactive) | 10.8 µM (inactive) | 5.32 µM (inactive) | 2.86 µM (inactive) | 2.92 µM (inactive) | 3.93 µM (inactive) | 5.4 µM (inactive) | 2.03 µM (inactive) | 1.99 µM (inactive) | 4.32 µM (inactive) | 4.19 µM (inactive) | 1.69 µM (inactive) | 2.94 µM (inactive) | 1.16 µM (inactive) | 2.47 µM (inactive) | 1.44 µM (inactive)
NC1(C(=O)O)CCC(C(=O)O)CC1 (centres undefined) | > 100 µM (inactive) | > 100 µM (inactive) | > 100 µM (inactive) | > 100 µM (inactive) | > 100 µM (inactive) | > 100 µM (inactive) | > 100 µM (inactive) | > 100 µM (inactive) | > 100 µM (inactive) | > 100 µM (inactive) | > 100 µM (inactive) | > 100 µM (inactive) | > 100 µM (inactive) | > 100 µM (inactive) | > 100 µM (inactive) | > 100 µM (inactive) | > 100 µM (inactive) | – | – | –
Cc1cc(N(CCC#N)CCC#N)ccc1/N=N/c1ccc([N+](=O)[O-])cc1 | > 100 µM (inactive) | > 100 µM (inactive) | > 100 µM (inactive) | > 100 µM (inactive) | 55 µM (inactive) | – | > 100 µM (inactive) | > 100 µM (inactive) | > 100 µM (inactive) | 23 µM (inactive) | 56.4 µM (inactive) | > 100 µM (inactive) | > 10 µM (inactive) | 22 µM (inactive) | > 10 µM (inactive) | > 100 µM (inactive) | 18.6 µM (inactive) | – | – | –
CC(=O)CCn1[nH]c(=O)c(Cl)c(Cl)c1=O | > 100 µM (inactive) | 14.3 µM (inactive) | > 100 µM (inactive) | – | > 100 µM (inactive) | > 100 µM (inactive) | > 100 µM (inactive) | > 100 µM (inactive) | > 100 µM (inactive) | > 100 µM (inactive) | > 100 µM (inactive) | > 100 µM (inactive) | > 100 µM (inactive) | 15.3 µM (inactive) | > 100 µM (inactive) | > 100 µM (inactive) | – | – | – | –
CNS(=O)(=O)NNS(=O)(=O)c1ccc(C)cc1 | > 100 µM (inactive) | > 100 µM (inactive) | > 100 µM (inactive) | > 100 µM (inactive) | > 100 µM (inactive) | > 100 µM (inactive) | > 100 µM (inactive) | > 100 µM (inactive) | > 100 µM (inactive) | > 100 µM (inactive) | > 100 µM (inactive) | > 100 µM (inactive) | > 100 µM (inactive) | > 100 µM (inactive) | – | > 100 µM (inactive) | – | – | – | –
Cc1cc(OCC(O)CO)ccc1-c1ccccc1 (centres undefined) | 11.4 µM (inactive) | > 100 µM (inactive) | 35 µM (inactive) | 61 µM (inactive) | 92.5 µM (inactive) | > 100 µM (inactive) | > 100 µM (inactive) | > 100 µM (inactive) | > 100 µM (inactive) | > 100 µM (inactive) | – | > 100 µM (inactive) | > 100 µM (inactive) | > 100 µM (inactive) | > 100 µM (inactive) | > 100 µM (inactive) | 54.3 µM (inactive) | – | – | –
CC(=O)NC(CCCN(Cc1ccccc1)C(=O)N(CCCl)N=O)C(=O)NCc1ccccc1 (centres undefined) | 32.7 µM (inactive) | 7.5 µM (inactive) | 23 µM (inactive) | > 64.7 µM (inactive) | 36 µM (inactive) | 44.4 µM (inactive) | 59.6 µM (inactive) | 60.5 µM (inactive) | 42.7 µM (inactive) | > 71.1 µM (inactive) | 6.19 µM (inactive) | > 66.5 µM (inactive) | 27.5 µM (inactive) | 17.8 µM (inactive) | 9.02 µM (inactive) | 3.69 µM (inactive) | 10.9 µM (inactive) | – | – | –
O=C1N2Cc3c4ccc5c3CN3C(=O)N6Cc7c(ccc(c7CN1C6(c1ccccc1)C23c1ccccc1)OCCOCCNCCOCCO4)OCCOCCNCCOCCO5 (centres undefined) | > 100 µM (inactive) | 51.6 µM (inactive) | 23.2 µM (inactive) | – | 18 µM (inactive) | 65.8 µM (inactive) | 52.4 µM (inactive) | 18.5 µM (inactive) | 21.8 µM (inactive) | 65 µM (inactive) | 65.5 µM (inactive) | 59.7 µM (inactive) | 55.2 µM (inactive) | > 100 µM (inactive) | > 100 µM (inactive) | 54.7 µM (inactive) | 28.9 µM (inactive) | – | – | –
CC(=O)[C@]1(O)Cc2c(O)c3c(c(O)c2[C@@H](OC2CC(N)C(O)C(C)O2)C1)C(=O)c1c(OCc2ccccc2)cccc1C3=O (some centres undefined) | 5.61 µM (inactive) | 1.64 µM (inactive) | 0.202 µM (active) | 1.16 µM (inactive) | 3.18 µM (inactive) | 7.98 µM (inactive) | 1.15 µM (inactive) | 1.41 µM (inactive) | 1.49 µM (inactive) | 1.48 µM (inactive) | 1.23 µM (inactive) | 17.4 µM (inactive) | 1.71 µM (inactive) | 1.5 µM (inactive) | 3.48 µM (inactive) | 0.0933 µM (active) | 1.07 µM (active) | 3.76 µM (inactive) | 0.619 µM (active) | 1.26 µM (inactive)
